From DBAASP
≈ marks a conversion by molar mass, not a printed value. Each block holds one compound with its values, some of them ahead of it.

What was measured:
Assay in all cases: ≥ marks a high value that may be exact or a test limit, other limits are often not marked, values filed in µg/mL are converted to µM
[1] = tested on: Bacillus subtilis ATCC 6633
[2] = tested on: Staphylococcus aureus ATCC 2592
[3] = tested on: Escherichia coli K-12
[4] = tested on: Staphylococcus aureus USA 300
[5] = tested on: Bacillus subtilis 168
[6] = tested on: Candida albicans ATCC 2002
[7] = tested on: Escherichia coli ATCC 25922
[8] = tested on: Pseudomonas aeruginosa ATCC 9027
[9] = tested on: Pseudomonas aeruginosa PAO1
[10] = tested on: Staphylococcus aureus ATCC BAA-1556
[11] = tested on: Bacillus subtilis

MIC [11]: ≥ 44.4 µM
MIC [6]: 11.1 µM (≈ 30 µg/mL)
MIC [7]: 44.4 µM (≈ 120 µg/mL)
MIC [2]: 5.55 µM (≈ 15 µg/mL)
Compound: CC[C@H](C)[C@H](NC(=O)[C@H](CCC(N)=O)NC(=O)[C@H](CCCCN)NC(=O)CNC(=O)[C@H](CC(C)C)NC(=O)[C@H](CCC(N)=O)NC(=O)CNC(=O)[C@H](CC(C)C)NC(=O)[C@H](CCCCN)NC(=O)[C@H](C)NC(=O)[C@H](CCC(=O)O)NC(=O)[C@H](CCCCN)NC(=O)[C@@H](NC(=O)CNC(=O)[C@@H](NC(=O)[C@@H](NC(=O)[C@@H](NC(=O)[C@@H](N)CO)[C@@H](C)CC)[C@@H](C)CC)[C@@H](C)O)[C@@H](C)O)C(=O)N[C@@H](C)C(=O)N[C@H]1CSSC[C@@H](C(=O)O)NC(=O)[C@H]([C@@H](C)O)NC(=O)[C@H](CC(N)=O)NC(=O)CNC(=O)[C@H](CC(C)C)NC(=O)[C@H](CCCN=C(N)N)NC1=O [SIITGTKEAKLGQLGKQIACRLGNTC]

MIC [11]: 20.4 µM (≈ 60 µg/mL)
MIC [6]: 5.09 µM (≈ 15 µg/mL)
MIC [7]: 10.2 µM (≈ 30 µg/mL)
MIC [2]: 5.09 µM (≈ 15 µg/mL)
Compound: CC[C@H](C)[C@H](NC(=O)[C@H](CCC(N)=O)NC(=O)[C@H](CCCCN)NC(=O)[C@H](Cc1c[nH]c2ccccc12)NC(=O)[C@H](CC(C)C)NC(=O)[C@H](CCC(N)=O)NC(=O)[C@@H]1CCCN1C(=O)[C@H](CC(C)C)NC(=O)[C@H](CCCCN)NC(=O)[C@H](C)NC(=O)[C@H](CCC(=O)O)NC(=O)[C@H](CCCCN)NC(=O)[C@@H](NC(=O)[C@H](CCSC)NC(=O)[C@@H](NC(=O)[C@@H](NC(=O)[C@@H](NC(=O)[C@@H](N)CO)[C@@H](C)CC)[C@@H](C)CC)[C@@H](C)O)[C@@H](C)O)C(=O)N[C@@H](C)C(=O)N[C@H]1CSSC[C@@H](C(=O)O)NC(=O)[C@H]([C@@H](C)O)NC(=O)[C@H](CC(N)=O)NC(=O)CNC(=O)[C@H](CC(C)C)NC(=O)[C@H](CCCN=C(N)N)NC1=O [SIITMTKEAKLPQLWKQIACRLGNTC]

MIC [10]: 3.12 µM (≈ 4.28 µg/mL)
Compound: CC(C)C[C@H](NC(=O)[C@H](Cc1c[nH]c2ccccc12)NC(=O)[C@H](CCCN=C(N)N)NC(=O)[C@H](CC(C)C)NC(=O)[C@H](Cc1c[nH]c2ccccc12)NC(=O)[C@H](CC(C)C)NC(=O)[C@H](CC(C)C)NC(=O)[C@H](Cc1c[nH]c2ccccc12)NC(=O)[C@@H](N)Cc1c[nH]c2ccccc12)C(N)=O [WWLLWLRWL]

MIC [10]: ≥ 100 µM
Compound: CC(C)C[C@H](NC(=O)[C@H](Cc1c[nH]c2ccccc12)NC(=O)[C@H](CC(C)C)NC(=O)[C@H](CC(C)C)NC(=O)[C@H](Cc1c[nH]c2ccccc12)NC(=O)[C@H](Cc1c[nH]c2ccccc12)NC(=O)[C@H](CC(C)C)NC(=O)[C@H](Cc1c[nH]c2ccccc12)NC(=O)[C@@H](N)Cc1c[nH]c2ccccc12)C(N)=O [WWLWWLLWL]

MIC [10]: 3.12 µM (≈ 4.74 µg/mL)
Compound: CC(C)C[C@H](NC(=O)[C@H](Cc1c[nH]c2ccccc12)NC(=O)[C@H](Cc1c[nH]c2ccccc12)NC(=O)[C@H](CC(C)C)NC(=O)[C@H](Cc1c[nH]c2ccccc12)NC(=O)[C@H](Cc1c[nH]c2ccccc12)NC(=O)[C@H](CCCN=C(N)N)NC(=O)[C@H](Cc1c[nH]c2ccccc12)NC(=O)[C@@H](N)Cc1c[nH]c2ccccc12)C(N)=O [WWRWWLWWL]

The remaining lines, values behind:

Compound: CC[C@H](C)[C@H](NC(=O)[C@@H](NC(=O)[C@@H](N)Cc1ccccc1)[C@@H](C)CC)C(=O)N[C@H](C(=O)NCC(=O)N[C@@H](CC(C)C)C(=O)N[C@H](C(=O)N[C@@H](CCCN=C(N)N)C(=O)NCC(=O)N[C@@H](CC(C)C)C(=O)N[C@H](C(=O)N[C@@H](CCCCN)C(=O)N[C@@H](CC(C)C)C(=O)N[C@@H](Cc1ccccc1)C(N)=O)[C@@H](C)O)C(C)C)[C@@H](C)O [FIITGLVRGLTKLF]
MIC [1]: 15.8 µM (≈ 25 µg/mL)
MIC [2]: 7.92 µM (≈ 12.5 µg/mL)

Compound: CC[C@H](C)[C@H](NC(=O)[C@H](CC(C)C)NC(=O)[C@H](C)NC(=O)[C@@H]1CCCN1C(=O)[C@H](CCCN=C(N)N)NC(=O)[C@@H](N)Cc1ccccc1)C(=O)N[C@H](C(=O)N[C@@H](CCCN=C(N)N)C(=O)N[C@H](C(=O)N[C@@H](CCCCN)C(=O)NCC(=O)N[C@H](C(=O)N[C@@H](CCCN=C(N)N)C(=O)N[C@@H](CC(C)C)C(=O)O)[C@@H](C)O)[C@@H](C)O)C(C)C [FRPALIVRTKGTRL]
MIC [3]: 30 µM (≈ 48.8 µg/mL)
MIC [4]: 30 µM (≈ 48.8 µg/mL)

Compound: CC[C@H](C)[C@H](NC(=O)[C@H](CCCN=C(N)N)NC(=O)[C@H](CCC(N)=O)NC(=O)[C@@H](NC(=O)[C@@H](NC(=O)[C@H](CCCN=C(N)N)NC(=O)[C@H](CCCCN)NC(=O)[C@H](Cc1ccccc1)NC(=O)CN)[C@@H](C)CC)C(C)C)C(=O)N[C@@H](C)C(=O)N[C@@H](CC(=O)O)C(=O)N[C@@H](Cc1ccccc1)C(=O)N[C@@H](CC(C)C)C(=O)N[C@@H](CCCN=C(N)N)C(=O)N[C@@H](CC(N)=O)C(=O)N[C@@H](CC(C)C)C(=O)N[C@H](C(N)=O)C(C)C [GFKRIVQRIADFLRNLV]
MIC [3]: ≥ 60 µM
MIC [4]: 7.5 µM (≈ 15.3 µg/mL)

Compound: CC[C@H](C)[C@H](NC(=O)[C@H](CCCCN)NC(=O)[C@H](CCCN=C(N)N)NC(=O)CNC(=O)[C@H](CC(C)C)NC(=O)[C@H](CO)NC(=O)[C@H](CCCN=C(N)N)NC(=O)[C@H](CC(C)C)NC(=O)CNC(=O)CN)C(=O)N[C@@H](CC(C)C)C(=O)N[C@@H](CCCN=C(N)N)C(=O)N[C@@H](C)C(=O)N[C@@H](Cc1c[nH]c2ccccc12)C(=O)N[C@@H](CCCCN)C(=O)N[C@@H](CCCCN)C(=O)N[C@@H](Cc1ccc(O)cc1)C(=O)NCC(=O)O [GGLRSLGRKILRAWKKYG]
MIC [5]: 8 µM (≈ 16.5 µg/mL)
MIC [3]: 2 µM (≈ 4.12 µg/mL)

Compound: CC[C@H](C)[C@H](NC(=O)CNC(=O)[C@@H]1CCCN1C(=O)CNC(=O)[C@H](CC(C)C)NC(=O)[C@H](CC(N)=O)NC(=O)[C@H](C)NC(=O)[C@H](Cc1ccccc1)NC(=O)[C@H](CC(N)=O)NC(=O)[C@H](C)NC(=O)[C@H](CCCN=C(N)N)NC(=O)[C@H](Cc1ccccc1)NC(=O)[C@H](C)NC(=O)[C@@H](NC(=O)[C@H](CCCN=C(N)N)NC(=O)[C@H](Cc1c[nH]c2ccccc12)NC(=O)[C@H](Cc1ccc(O)cc1)NC(=O)[C@H](CC(=O)O)NC(=O)[C@H](C)NC(=O)[C@H](CC(C)C)NC(=O)CN)[C@@H](C)O)C(=O)N[C@@H](CCCN=C(N)N)C(=O)N[C@H]1CSSC[C@@H](C(=O)O)NC(=O)[C@H](CCCN=C(N)N)NC(=O)[C@H](C)NC(=O)[C@H](CO)NC(=O)[C@H](CCCCN)NC1=O [GLADYWRTAFRANFANLGPGIRCKSARC]
MIC [6]: ≥ 32 µM
MIC [7]: 2 µM (≈ 6.23 µg/mL)
MIC [8]: 6 µM (≈ 18.7 µg/mL)
MIC [2]: 1 µM (≈ 3.11 µg/mL)

Compound: CC[C@H](C)[C@H](NC(=O)[C@H](C)NC(=O)[C@@H]1CCCN1C(=O)[C@@H](NC(=O)[C@@H](NC(=O)[C@H](Cc1cnc[nH]1)NC(=O)[C@H](CO)NC(=O)[C@@H](NC(=O)[C@@H](NC(=O)[C@H](CO)NC(=O)CNC(=O)[C@H](CC(C)C)NC(=O)[C@H](CC(C)C)NC(=O)CNC(=O)[C@H](CC(C)C)NC(=O)[C@H](CC(C)C)NC(=O)CN)C(C)C)C(C)C)C(C)C)C(C)C)C(=O)N[C@H](C(=O)NCC(=O)N[C@@H](Cc1cnc[nH]1)C(=O)N[C@@H](Cc1ccccc1)C(N)=O)C(C)C [GLLGLLGSVVSHVVPAIVGHF]
MIC [5]: 25 µM (≈ 51.8 µg/mL)
MIC [3]: ≥ 100 µM
MIC [9]: > 100 µM
MIC [4]: 6.2 µM (≈ 12.8 µg/mL)

Compound: CC[C@H](C)[C@H](NC(=O)[C@H](Cc1c[nH]c2ccccc12)NC(=O)[C@H](CCCN=C(N)N)NC(=O)[C@H](CCCN=C(N)N)NC(=O)[C@H](Cc1c[nH]c2ccccc12)NC(=O)[C@@H](N)CCCCN)C(=O)N[C@@H](CCCN=C(N)N)C(=O)N[C@@H](CC(C)C)C(=O)N[C@@H](CC(C)C)C(N)=O [KWRRWIRLL]
MIC [10]: 25 µM (≈ 33.1 µg/mL)

Compound: CC(C)C[C@H](NC(=O)[C@H](CC(C)C)NC(=O)[C@H](CCCCN)NC(=O)[C@H](CC(C)C)NC(=O)[C@H](CC(C)C)NC(=O)[C@H](CC(C)C)NC(=O)[C@H](CC(C)C)NC(=O)[C@H](CCCCN)NC(=O)[C@@H](N)CC(C)C)C(N)=O [LKLLLLKLL]
MIC [10]: ≥ 100 µM

Compound: CC(C)C[C@H](NC(=O)[C@H](CC(C)C)NC(=O)[C@H](CC(C)C)NC(=O)[C@H](CC(C)C)NC(=O)[C@H](CCCCN)NC(=O)[C@H](CC(C)C)NC(=O)[C@H](CCCCN)NC(=O)[C@H](CC(C)C)NC(=O)[C@@H](N)CC(C)C)C(N)=O [LLKLKLLLL]
MIC [10]: ≥ 100 µM

Compound: CC(C)C[C@H](NC(=O)[C@H](CC(C)C)NC(=O)[C@H](CC(C)C)NC(=O)[C@H](CCCCN)NC(=O)[C@H](CCCCN)NC(=O)[C@H](CC(C)C)NC(=O)[C@H](CC(C)C)NC(=O)[C@H](CC(C)C)NC(=O)[C@@H](N)CC(C)C)C(N)=O [LLLLKKLLL]
MIC [10]: ≥ 100 µM

Compound: CC(C)C[C@H](NC(=O)[C@H](Cc1c[nH]c2ccccc12)NC(=O)[C@H](Cc1c[nH]c2ccccc12)NC(=O)[C@H](CC(C)C)NC(=O)[C@H](CCCN=C(N)N)NC(=O)[C@H](Cc1c[nH]c2ccccc12)NC(=O)[C@@H](N)CC(C)C)C(=O)N[C@@H](Cc1c[nH]c2ccccc12)C(=O)N[C@@H](Cc1c[nH]c2ccccc12)C(N)=O [LWRLWWLWW]
MIC [10]: 3.12 µM (≈ 4.51 µg/mL)
